In PubChem BioAssay (NCI):
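Grown in 96-well plates, cells were treated for 48 hours with each compound at five concentrations. Insufficient inhibition: endpoint recorded as highest concentration tested. TGI: concentration producing complete growth inhibition.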

Test system: SN12K1 renal
Experiment: DTP human tumour cell line panel, 48 h

CCc1ccccc1N1CCN(C(=O)c2cc(OC)c(OC)c(OC)c2)CC1
TGI: 194 nM

COC(C(=O)C(O)C(C)O)C1Cc2cc3cc(OC4CC(OC(C)=O)C(OC5CC(O)C(OC)C(C)O5)C(C)O4)cc(O)c3c(O)c2C(=O)C1OC1CC(OC2CC(OC3CC(C)(O)C(OC(=O)C(C)C)C(C)O3)C(O)C(C)O2)C(O)C(C)O1 (configuration not stated)
TGI: 12.6 nM
